In patent US6369101B1, “Therapeutic method to treat herpes virus infection” (Regents of the University of Minnesota, priority 1999, dated 2002):
≈ marks a conversion by molar mass, not a printed value.

Assays:
[1] = system: HSV-1 strain E-377; test: CPE inhibition assay, HSV-1 E377 in human foreskin fibroblast cells; format: cell-based, herpes simplex virus type 1; settings: for EC50 HSV-1 E377: CPE inhibition in HFF cells; for Qualitative CPE at 2.0 ml dose HSV-1 E377: key: +++ = Complete cytopathic effect; ++ = Moderate cytopathic effect; + = Minimum cytopathic effect; − = No cytopathic effect
[2] = system: Vero cells; test: Cytotoxic effect in Vero cell line; format: cell-based, African green monkey; settings: Vero cell line
Description: Human laryngeal epithelial carcinoma cells (HEp-2, ATCC, Rockville, Md.) were used for testing of antiviral compounds by cytopathic effect (CPE) inhibition and plaque reduction assay. […] HEp-2, African green monkey kidney cells (Vero, ATCC), HFF and primary rabbit kidney cells were used to determine the cytotoxic effect of compounds of formula I. These cells were propagated in Dulbeco's modified Eagle's medium (DMEM) (Sigma, USA) supplemented with 10% inactivated fetal calf serum (FCS), 25 mM HEPES, 0.2% sodium bicarbonate and 1% penicillin/-streptomycin at 37° C. in the presence of 5% CO2.
HFF, Vero and HEp-2 cells were seeded in 24-well tissue culture plates at a concentration of […] in DMEM containing 10% FCS and incubated for 24 hours at 37° C. in the presence of 5% CO2. To the monolayer of these cells 0.5, 1.0, 1.5 and 2.0 ml of solution of antiviral compounds were added in the respective wells in duplicate and the cells were then incubated in a 5% CO2 incubator at 37° C. for 72 hours. The cells were observed daily for any change in morphology. […] At the end of this time, the media-drug solution was removed and the cells washed. One ml of 0.25% trypsin was added to each well and incubated until the cells start to come off of the plate. The cells-media mixture was then pipetted up and down several times to resuspend the cells and 0.2 ml of the cell suspension was added to 9.8 ml of trypan blue and cells were counted using hemocytometer. Each sample was counted three times with three replicate wells per sample.

[3] = system: HSV-2 strain G; test: CPE inhibition, HSV-2 strain G in HEp-2 cells; for Cytopathic Effect (CPE) Inhibition HSV-2 Strain G: key: +++ = Complete cytopathic effect; ++ = Moderate cytopathic effect; + = Minimum cytopathic effect; − = No cytopathic effect; format: cell-based, herpes simplex virus type 2; settings: for Cytopathic Effect (CPE) Inhibition HSV-2 Strain G: conc. per compound (ng/ml)
[4] = system: HFF cells; test: CC50 in HFF cells (Table 3); format: cell-based, human; settings: HFF cells
Description: The cells were observed daily for any change in morphology. The rounding and lysis of cells were observed if the compound has cytotoxic effect. At the end of this time, the media-drug solution was removed and the cells washed. […] The cells-media mixture was then pipetted up and down several times to resuspend the cells and 0.2 ml of the cell suspension was added to 9.8 ml of trypan blue and cells were counted using hemocytometer. Each sample was counted three times with three replicate wells per sample.

[5] = system: HSV-2 (strain G); test: Plaque reduction assay, HSV-2 strain G in HEp-2 cells; format: cell-based, herpes simplex virus type 2; settings: HSV-2 virus control 47
Description: HEp-2 cells were grown to monolayer in 24 well tissue culture plates in DMEM containing 10% fetal calf serum at 37° C. for 24-36 hours in the presence of 5% CO2. The monolayer of HEp-2 cells was infected with 0.1 ml of HSV- 1 (strain F) or HSV-2 (strain G) containing 100 pfu. The viruses were allowed to adsorb for 1 hour at 37° C. in the presence of 5% CO2. All wells containing virus infected cells except virus control were overlaid with 0.9 ml of DMEM and 1 ml of test compound. The virus control and cell control received DMEM only. All microtiter plates were incubated at 37° C. in the presence of 5% CO2 and observed twice daily for 72 hours for viral CPE. At the end of the experiment, plates were stained with 0.1% crystal violet and the results were quantified by counting plaque forming units.

[6] = HFF cells, solution conc. per compound (ng/ml) (Acyclovir 250)
[7] = Varicella-Zoster Virus section of Table 3
[8] = conc. per compound (ng/ml) (Acyclovir 250)

Compound | EC50 HSV-1 E377 [1] [µg/mL] | Qualitative CPE at 2.0 ml dose HSV-1 E377 ([1]; HFF cells, Conc. 12500 ng/ml) | Qualitative CPE at 2.0 ml dose HSV-1 E377 [1, 6] | CC50 [2] [µg/mL] | Cytopathic Effect (CPE) Inhibition HSV-2 Strain G [3] | CC50 [4, 7] [µg/mL] | Plaque Reduction Assay Average pfu/10^5 Cells HSV-2 Strain G ([5]; Conc. 12500 ng/ml) [pfu/10^5 Cells] | Plaque Reduction Assay Average pfu/10^5 Cells HSV-2 Strain G [5, 8] [pfu/10^5 Cells] | anti HSV-1 activity (in words) ([1]; HFF cells, HSV-1 (E377)) | anti HSV-2 activity (in words) ([3]; qualitative CPE inhibition assay) | CC50 ([4]; Human Cytomegalovirus section of Table 3) [µg/mL]
acycloguanosine [Acyclovir, reference compound] | 1.6 | + | +++ | 0.25 | +++ | >100 | 30 | 42 |  |  | 
C=C(C)[C@@H]1CC[C@]2(CO)CC[C@]3(C)[C@H](CC[C@@H]4[C@@]5(C)CC[C@H](O)C(C)(C)[C@@H]5CC[C@]43C)[C@@H]12 [Betulin, lup-20(29)-ene-3β, 28-diol, reference compound] | 0.25 (≈ 0.565 µM) |  | +++ | 0.125 (≈ 0.282 µM) | + | 0.0141 (≈ 0.0318 µM) |  | 16 | significant anti-HSV-1 activity | significant anti HSV-2 activity | 0.0142 (≈ 0.0321 µM)
